Experimental data: patent US11413297B2, “Therapies for treating and preventing chronic rhinosinusitis” (Avanti Polar Lipids, LLC, priority 2017, dated 2022)
Entries after “also recorded” stand apart in the source; their conditions may differ.

Experiments:
Format in all cases: cell-based
[1] = system: preformed P. aeruginosa biofilms; test: Disruption of preformed P. aeruginosa biofilms, crystal violet (Example 3); conditions: for disruption of preformed P. aeruginosa biofilms: 6 h time point; for eradication of preformed P. aeruginosa biofilms: 24 h time point, FIGS. 5A-5C
Procedure: We performed in vitro studies of the capacity of phospholipids together with antibiotics to disrupt preformed bacterial biofilms. The tests were conducted as follows. Biofilm formation was obtained by culturing P. aeruginosa in cation-adjusted Mueller Hinton Broth after incubation at 37 degrees C. for 24 hours in 96 well plates. The medium was then removed and replaced by treatment solutions of gentamicin, phospholipids plus gentamicin, or control solutions. Either three or four different phospholipids (MAPCHO-10, MAPCHO-12, MAPCHO-14, and MAPCHO-16) were tested at three different phospholipid test concentrations (512 μg/ml, 1024 μg/ml, and 2048 μg/ml). After 24 hours at 37 degrees C., media was removed and fresh medium was added and the 96-well plates were incubated at 37 degrees C. for either 6 hours or 24 hours. Media were then removed and biofilm at the base of the wells was stained with crystal violet and quantitated.

[2] = system: S. aureus (ATCC BAA-1720) biofilm formation; test: Prevention of S. aureus biofilm formation, crystal violet at 540 nm (Example 2); conditions: 24 hours
Procedure: (§1) We also performed in vitro tests of the capacity of phospholipids together with antibiotics to prevent formation of biofilms. Freshly grown S. aureus and P. aeruginosa were quantitated and placed in 96-well plates together with phospholipids plus gentamicin and tobramycin (antibiotics), phospholipids alone, antibiotics alone or controls solution. After 24 hours at 37 degrees C., the fluids were removed and the wells stained with crystal violet, and then the density of crystal violet in the wells was quantitated by absorption of light at 540 nm.

[3] = system: preformed S. aureus (ATCC BAA-1720) biofilms; test: Disruption of preformed S. aureus biofilm, crystal violet staining (Example 1)
Procedure: We performed in vitro studies of the capacity of phospholipids together with antibiotics to disrupt preformed bacterial biofilms. The tests were conducted as follows. Biofilm formation was obtained by culturing (1) S. aureus in tryptic soy broth media supplemented with 5% glucose; and (2) P. aeruginosa in cation-adjusted Mueller Hinton Broth after incubation at 37 degrees C. for 24 hours in 96 well plates. The medium was then removed and replaced by treatment solutions of antibiotics, antibiotics+phospholipids, phospholipids alone, or control solutions. Phospholipid concentration used in the assays was 512 μg/ml although in some studies, was […]. After 24 hours at 37 degrees C., media was removed and fresh medium was added and the 96-well plates incubated at 37 degrees C. for 24 hours. Media were then removed and biofilm at the base of the wells was stained with crystal violet and quantitated.

[4] = system: P. aeruginosa biofilm formation; test: Prevention of P. aeruginosa biofilm formation, crystal violet (Example 5); conditions: 24 h
Procedure: We performed in vitro tests of the capacity of phospholipids together with antibiotics to prevent formation of biofilms. Freshly grown P. aeruginosa was quantitated and placed in 96-well plates together with gentamicin alone, phospholipids plus gentamicin, or control solutions. Four different phospholipids (MAPCHO-10, MAPCHO-12, MAPCHO-14, and MAPCHO-16) were tested at two different phospholipid test concentrations (1024 μg/ml and 2048 μg/ml). After 24 hours at 37 degrees C., the fluids were removed and the wells stained with crystal violet, and then the density of crystal violet in the wells was quantitated.

[5] = system: S. aureus (NCTC 8325) biofilm formation; test: Prevention of S. aureus (NCTC 8325) biofilm formation, crystal violet at 540 nm (Example 12); conditions: 24 hours; for prevention of biofilm formation by S. aureus (NCTC 8325): agent alone (antibiotic alone at low concentrations, or phospholipid alone)
Procedure: as §1, with “(NCTC 8325)” for “and P. aeruginosa”, “(antibiotics) or” for “(antibiotics), phospholipids alone,”, “alone.” for “alone or controls solution.”

[6] = system: P. aeruginosa in preformed biofilm; test: Bacterial density of P. aeruginosa in preformed biofilm, OD600 (Example 7); conditions: in combination with gentamicin; 6 h; phospholipid 512, 1024, 2048 μg/ml; FIGS. 10A-10D
Procedure: We performed in vitro studies of the capacity of phospholipids together with antibiotics to eradicate preformed bacterial biofilms. The tests were conducted as follows. Biofilm formation was obtained by culturing P. aeruginosa in cation-adjusted Mueller Hinton Broth after incubation at 37 degrees C. for 24 hours in 96 well plates. The medium was then removed and replaced by treatment solutions of gentamicin, phospholipids plus gentamicin, or control solutions. Four different phospholipids (MAPCHO-10, MAPCHO-12, MAPCHO-14, and MAPCHO-16) were tested at three different phospholipid test concentrations (512 μg/ml, 1024 μg/ml, and 2048 μg/ml). After 24 hours at 37 degrees C., media was removed and fresh medium was added and the 96-well plates were incubated at 37 degrees C. for 6 hours. Bacterial density was then analyzed and measured at OD600.

P. aeruginosa [7] = test: Prevention of P. aeruginosa bacterial growth, OD600 after 24 h (Example 6); conditions: in combination with gentamicin, phospholipid 512, 1024, 2048 μg/ml, FIGS. 9A-9C
Procedure: We performed in vitro studies of the capacity of phospholipids together with antibiotics to prevent bacterial growth. Freshly grown P. aeruginosa was quantitated and placed in 96-well plates together with gentamicin alone, phospholipids plus gentamicin, or control solutions. Three different phospholipids (MAPCHO-12, MAPCHO-14, and MAPCHO-16) were tested at three different phospholipid test concentrations (512 μg/ml, 1024 μg/ml, and 2048 μg/ml). After 24 hours at 37 degrees C., bacterial density was then analyzed and measured at OD600.

P. aeruginosa [8] = test: Inhibition of growth of planktonic P. aeruginosa, OD600 (Example 4); conditions: in combination with gentamicin, compared to gentamicin alone
Procedure: We performed in vitro studies of the capacity of phospholipids together with antibiotics to inhibit the growth of planktonic bacteria. The tests were conducted as follows. Freshly grown P. aeruginosa was quantitated and placed in 96-well plates together with gentamicin alone, phospholipids plus gentamicin, or control solutions. Four different phospholipids (MAPCHO-10, MAPCHO-12, MAPCHO-14, and MAPCHO-16) were tested at two different phospholipid test concentrations (1024 μg/ml and 2048 μg/ml). After 24 hours at 37 degrees C., media was removed and fresh medium was added and the 96-well plates were incubated at 37 degrees C. for either 6 hours or 24 hours. Bacterial density was then analyzed and measured at OD600.

S. aureus = test: Inhibition of growth of planktonic S. aureus, OD600 (Example 8); conditions: in combination with gentamicin, compared to gentamicin alone; 6 h; phospholipid 256, 512, 1024 μg/ml
Procedure: (§2) We performed in vitro studies of the capacity of phospholipids together with antibiotics to inhibit the growth of planktonic bacteria. The tests were conducted as follows. Freshly grown S. aureus was quantitated and placed in 96-well plates together with gentamicin alone, phospholipids plus gentamicin, or control solutions. Two different phospholipids (MAPCHO-10 and MAPCHO-12) were tested at three different phospholipid test concentrations (256 μg/ml, 512 μg/ml, and 1024 μg/ml). After 24 hours at 37 degrees C., media was removed and fresh medium was added and the 96-well plates were incubated at 37 degrees C. for 6 hours. Bacterial density was then analyzed and measured at OD600.

MRSA = test: Inhibition of growth of planktonic MRSA, OD600 (Example 10); conditions: in combination with gentamicin, compared to gentamicin alone; 6 h; phospholipid 256, 512, 1024 μg/ml
Procedure: as §2, with “MRSA” for “S. aureus”

[9] = system: S. aureus biofilm formation; test: Prevention of S. aureus biofilm formation at 6 h, crystal violet (Example 9); conditions: in combination with gentamicin, phospholipid 256, 512, 1024 μg/ml
Procedure: We performed in vitro tests of the capacity of phospholipids together with antibiotics to prevent formation of biofilms. Freshly grown S. aureus was quantitated and placed in 96-well plates together with gentamicin alone, phospholipids plus gentamicin, or control solutions. Two different phospholipids ([…]-10 and […]-12) were tested at three different phospholipid test concentrations (256 μg/ml, 512 μg/ml, and 1024 μg/ml). After 6 hours at 37 degrees C., the fluids were removed and the wells stained with crystal violet, and then the density of crystal violet in the wells was quantitated.

MRSA biofilm formation = test: Prevention of MRSA biofilm formation at 6 h, crystal violet (Example 11); conditions: in combination with gentamicin, phospholipid 512 μg/ml and 1024 μg/ml
Procedure: We performed in vitro tests of the capacity of phospholipids together with antibiotics to prevent formation of biofilms. Freshly grown MRSA was quantitated and placed in 96-well plates together with gentamicin alone, phospholipids plus gentamicin, or control solutions. Two different phospholipids (MAPCHO-10 and MAPCHO-12) were tested at three different phospholipid test concentrations (256 μg/ml, 512 μg/ml, and 1024 μg/ml). After 6 hours at 37 degrees C., the fluids were removed and the wells stained with crystal violet, and then the density of crystal violet in the wells was quantitated.

[10] = agent alone (gentamicin alone at low concentrations, or phospholipid alone)
[11] = agent alone (gentamicin alone or phospholipid alone)
[12] = in combination with gentamicin, phospholipid 512, 1024 and 2048 μg/ml, FIGS. 4B-4D
[13] = in combination with gentamicin, phospholipid 512, 1024 and 2048 μg/ml
[14] = in combination with gentamicin, phospholipid 1024 or 2048 μg/ml, FIGS. 8B, 8C
[15] = 6 h time point, phospholipid 1024 and 2048 μg/ml

Compound | prevention of biofilm formation by S. aureus [2, 10] | disruption of preformed biofilm of S. aureus [3, 11] | prevention of biofilm formation by S. aureus (NCTC 8325) [5] | inhibition of P. aeruginosa bacterial growth in preformed biofilm relative to gentamicin alone [6] | disruption of preformed P. aeruginosa biofilms [1, 12] | eradication of preformed P. aeruginosa biofilms [1, 13] | inhibition of P. aeruginosa bacterial growth relative to gentamicin alone (P. aeruginosa [7]) | prevention of P. aeruginosa biofilm formation [4, 14] | inhibition of P. aeruginosa growth (P. aeruginosa [8]; [15]) | inhibition of S. aureus growth (S. aureus) | inhibition of MRSA growth (MRSA) | prevention of S. aureus biofilm formation compared to gentamicin alone [9] | other results
gentamicin [reference compound] | does not prevent the formation of the biofilm | not successful | did not prevent the formation of the biofilm | – | – | – | – | – | – | – | – | – | disruption of preformed P. aeruginosa biofilms ([1]; gentamicin alone, FIG. 4A): did not induce biofilm disruption; prevention of P. aeruginosa biofilm formation ([4]; gentamicin alone, FIG. 8A): unable to prevent
CCCCCCCCCCCCCCCCOP(=O)([O-])OCC[N+](C)(C)C [MAPCHO-16] | – | – | – | more effective | disruption of P. aeruginosa biofilms occurs | nearly complete eradication | more effective | effective at preventing | – | – | – | – | –
CCCCCCCCCCCCCCOP(=O)([O-])OCC[N+](C)(C)C [MAPCHO-14, N-tetradecylphosphocholine] | – | – | – | more effective | disruption of P. aeruginosa biofilms occurs | nearly complete eradication | more effective | effective at preventing | moderate inhibition | – | – | – | inhibition of P. aeruginosa growth (P. aeruginosa [8]; 24 h time point, phospholipid 1024 and 2048 μg/ml): significant inhibition
CCCCCCCCCCOP(=O)([O-])OCC[N+](C)(C)C [MAPCHO-10, N-decylphosphocholine] | – | – | – | – | – | – | – | – | – | moderate inhibition | moderate inhibition | more effective | –
CCCCCCCCCCCCOP(=O)([O-])OCC[N+](C)(C)C [MAPCHO-12, N-dodecylphosphocholine] | did not prevent biofilm formation | did not disrupt the biofilm | did not prevent biofilm formation | more effective | disruption of P. aeruginosa biofilms occurs | nearly complete eradication | – | effective at preventing | moderate inhibition | strong inhibition | strong inhibition | more effective | inhibition of P. aeruginosa growth (P. aeruginosa [8]; 24 h time point, highest phospholipid dose 2048 μg/ml): significant inhibition; prevention of biofilm formation by S. aureus ([2]; phospholipid combined with gentamicin at low concentrations, FIG. 3): did prevent biofilm formation; disruption of preformed biofilm of S. aureus ([3]; phospholipid together with gentamicin, FIG. 2): disrupt preformed biofilm; sterilization of S. aureus on disruption of the biofilm ([3]; phospholipid/gentamicin combination): sterilized; prevention of MRSA biofilm formation compared to gentamicin alone (MRSA biofilm formation): tends to be more effective; effect on formation of biofilm by S. aureus (NCTC 8325) ([5]; 512 μg dose of phospholipid in combination with gentamicin, FIGS. 15, 16): positive effects; also recorded: able to prevent biofilm formation; effect on formation of biofilm by S. aureus (NCTC 8325) ([5]; 512 μg dose of phospholipid in combination with tobramycin, FIGS. 15, 17): positive effects; also recorded: able to prevent biofilm formation
NC[C@H]1O[C@H](O[C@H]2[C@H](O)[C@@H](O[C@H]3O[C@H](CO)[C@@H](O)[C@H](N)[C@H]3O)[C@H](N)C[C@@H]2N)[C@H](N)C[C@@H]1O [tobramycin, reference compound] | – | – | did not prevent the formation of the biofilm | – | – | – | – | – | – | – | – | – | –
